Eleven compounds from patent US20220324835A1 (Nurix Therapeutics, Inc., priority 2018, published 2022) can be followed below.

Test [1] addresses T1, Cbl-b (Homo sapiens, UniProt Q13191). Kind of test: Cbl-b activity assay (Cbl-b inhibition assay), TR-FRET of Cbl-b interaction with UbcH5B-Ub. The test is classed as biochemical. Particulars: assay buffer with 100 mM NaCl, 60 nM Src kinase; read-out: Cbl-b activity IC50. Put shortly:
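Compound-treated Cbl-b was incubated 1.5 h with Src kinase (60 nM final; 30 nM for asterisked values, which also used 50 mM instead of 100 mM NaCl), 1 mM ATP and 5 mM MgCl2. Binding to fluorescent Ub-loaded UbcH5B (C85K mutant) was then read by TR-FRET after 1 h more.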
For orientation: In TR-FRET formats the signal depends on donor and acceptor labels being close together.

The test system of test [2] is T-cell. Description: CD25 cell surface staining on T-cells co-stimulated with anti-CD3 and anti-CD28 antibody (Biological Example 2). The test is classed as cell-based, human. Particulars: Homo sapiens, T-cell, primary human total T-cells, baseline = anti-CD3/anti-CD28 stimulated cells without inhibitor, read-out: CD25 staining, Anti-CD3/Anti-CD28 stimulation, fold change over baseline; for fold induction at 0.3 µM: 0.3 μM compound; for fold induction at 1 µM: 1 μM compound. Put shortly:
(§1)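 Values are fold-change over baseline: readings (IL-2 release, CD25 staining) from inhibitor-treated T-cells divided against untreated cells […]. No detailed procedure stated.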

The subject of test [3] is T-cell. Description: CD25 cell surface staining on T-cells stimulated with anti-CD3 antibody alone (Biological Example 2). The test is classed as cell-based. Particulars: 1 μM compound, primary human total T-cells, baseline = anti-CD3/anti-CD28 stimulated cells without inhibitor, read-out: CD25 staining, Anti-CD3 stimulation, fold change over baseline.
Test [4] has as its target T1, Cbl-b. Kind of test: Cbl-b inhibition assay (Cbl-b activity assay, FRET, Biological Example 1; 100 mM NaCl, 60 nM Src kinase). The test is classed as biochemical. The note with it: upper bound stated in text lists; read-out: IC50 values in the Cbl-b inhibition assay of Biological Example 1. A digest of the protocol:
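Here, the E2 UbcH5B, irreversibly linked to Bodipy-fluorescein ubiquitin, binds Cbl-b once Src kinase phosphorylates it; Cbl-b carries an N-terminal biotinylated Avi-tag captured by streptavidin-terbium. An absent FRET signal indicates inhibition.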

The subject of test [5] is T-cell. Kind of test: IL-2 secretion from T-cells co-stimulated with anti-CD3 and anti-CD28 antibody (Biological Example 2). The format is cell-based, human. Particulars: Homo sapiens, T-cell, primary human total T-cells, baseline = anti-CD3/anti-CD28 stimulated cells without inhibitor, read-out: IL-2 secretion, Anti-CD3/Anti-CD28 stimulation, fold change over baseline; for fold induction at 0.3 µM: 0.3 μM compound; for fold induction at 1 µM: 1 μM compound. Put shortly: as §1

In test [6] the test system is T-cell. Kind of test: IL-2 secretion from T-cells stimulated with anti-CD3 antibody alone (Biological Example 2). The format is cell-based. The note with it: 1 μM compound, primary human total T-cells, read-out: IL-2 secretion, Anti-CD3 stimulation, fold change over baseline.

T1 sequence (Q13191 36-427): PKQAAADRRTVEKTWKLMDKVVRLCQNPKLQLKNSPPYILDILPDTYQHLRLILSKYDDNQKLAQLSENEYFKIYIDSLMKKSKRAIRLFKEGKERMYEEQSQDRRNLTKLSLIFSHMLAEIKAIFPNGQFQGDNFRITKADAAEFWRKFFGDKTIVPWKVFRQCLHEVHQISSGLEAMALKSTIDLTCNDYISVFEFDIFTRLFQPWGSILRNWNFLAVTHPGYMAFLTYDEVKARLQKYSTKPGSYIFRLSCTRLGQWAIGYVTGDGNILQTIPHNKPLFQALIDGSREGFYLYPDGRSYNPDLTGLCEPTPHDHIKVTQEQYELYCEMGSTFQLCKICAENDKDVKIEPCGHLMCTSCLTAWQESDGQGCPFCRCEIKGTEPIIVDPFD

Broadly, the IC50 is the concentration needed to halve the response being measured. `Cn1cnnc1-c1cnn(C)c1-c1cccc(N2Cc3c(cccc3C(F)(F)F)C2=O)c1` [Compound 523, 2-(3-(l-methyl-4-(4-methyl-4H-1,2,4-triazol-3-yl)-1H-pyrazol-5-yl)phenyl)-4-(trifluoromethyl)isoindolin-1-one]: the results for the IC50 at Cbl-b [1] and at Cbl-b [4] were 100 to 300 nM and not above 300 nM, respectively. Further, the fold induction at 0.3 µM in the test on T-cell [2] fell in the range of 1.01 to 1.3; in the test on T-cell [5], 1.01 to 2.5. Besides, the fold induction at 1 µM with T-cell [2] fell in the range of 1.01 to 1.3; with T-cell [3], 0.601 to 0.8; in the test with T-cell [5] it was 1.01 to 2.5; with T-cell [6], 0.051 to 0.1.

With `Cc1cc(C(=O)Nc2cccc(C3(Cc4nncn4C)CC(F)(F)C3)c2)nc(C2CC2)n1` [Compound 526, 2-cyclopropyl-N-(3-(3,3-difluoro-1-((4-methyl-4H-1,2,4-triazol-3-yl)methyl)cyclobutyl)phenyl)-6-methylpyrimidine-4-carboxamide], the IC50 was less than 100 nM on Cbl-b [1] and not above 100 nM at Cbl-b [4]. Besides, the fold induction at 0.3 µM in the test on T-cell [2] is 1.01 to 1.3; with T-cell [5] it was 5 to 7.5. Moreover, the fold induction at 1 µM with T-cell [2] is 1.01 to 1.3; in the test on T-cell [3], more than 1; with T-cell [5], more than 7.5; in the test on T-cell [6], more than 0.201.

Take `Cn1cnnc1CC1(c2cccc(N3Cc4c(cccc4C(F)(F)F)C3=O)c2)CC(F)(F)C1` [Compound 527, 2-(3-(3,3-difluoro-1-((4-methyl-4H-1,2,4-triazol-3-yl)methyl)cyclobutyl)-phenyl)-4-(trifluoromethyl)isoindolin-1-one]: the IC50 at Cbl-b [1] is less than 100 nM; on Cbl-b [4], not above 100 nM. Moreover, the values for the fold induction at 0.3 µM with T-cell [2] and in the test on T-cell [5] were 1.01 to 1.3 and 2.51 to 5, respectively. Besides, the fold induction at 1 µM in the test with T-cell [2] was 1.01 to 1.3; in the test on T-cell [3], more than 1; with T-cell [5], 5 to 7.5; with T-cell [6] it was more than 0.201.

Turning to `Cn1cnnc1CC1(c2cccc(N3Cc4c(cc(CN5CCCC(F)(F)CC5)cc4C(F)(F)F)C3=O)c2)COC1` [Compound 528, 6-((4,4-difluoroazepan-1-yl)methyl)-2-(3-(3-((4-methyl-4H-1,2,4-triazol-3-yl)methyl)oxetan-3-yl)phenyl)-4-(trifluoromethyl)isoindolin-1-one], the values for the IC50 at Cbl-b [1] and on Cbl-b [4] were less than 100 nM and not above 100 nM, respectively. For the same compound, the fold induction at 0.3 µM in the test with T-cell [2] is 1.01 to 1.3; in the test with T-cell [5], more than 7.5. Moreover, the fold induction at 1 µM in the test on T-cell [2] is 1.01 to 1.3; with T-cell [3], more than 1; with T-cell [5], more than 7.5; with T-cell [6], more than 0.201.

In the case of `Cn1cnnc1CC1(c2cccc(N3Cc4c(cc(CC5CCCO5)cc4C(F)(F)F)C3=O)c2)COC1` (stereo not shown) [Compound 529, 2-(3-(3-((4-methyl-4H-1,2,4-triazol-3-yl)methyl)oxetan-3-yl)phenyl)-6-((THF-2-yl)methyl)-4-(trifluoromethyl)isoindolin-1-one], the IC50 is less than 100 nM on Cbl-b [1] and not above 100 nM on Cbl-b [4]. Besides, the fold induction at 0.3 µM in the test on T-cell [2] lay within 1.01 to 1.3; with T-cell [5], 2.51 to 5. In addition, the fold induction at 1 µM is 1.01 to 1.3 in the test with T-cell [2], 0.801 to 1 in the test with T-cell [3], more than 7.5 in the test with T-cell [5] and 0.101 to 0.15 in the test with T-cell [6].

On to `CN1CCC(=O)C(Cc2cc3c(c(C(F)(F)F)c2)CN(c2cccc(C4(Cc5nncn5C)COC4)c2)C3=O)C1` (stereo not drawn) [Compound 531, 6-((l-methyl-4-oxopiperidin-3-yl)methyl)-2-(3-(3-((4-methyl-4H-1,2,4-triazol-3-yl)methyl)oxetan-3-yl)phenyl)-4-(trifluoromethyl)isoindolin-1-one], for which the IC50 on Cbl-b [1] was less than 100 nM; on Cbl-b [4] it was not above 100 nM. The fold induction at 0.3 µM in the test with T-cell [2] is 1.01 to 1.3; in the test on T-cell [5], more than 7.5. In addition, the fold induction at 1 µM in the test with T-cell [2] was 1.01 to 1.3; in the test on T-cell [3] it was more than 1; in the test on T-cell [5] it was more than 7.5; with T-cell [6], more than 0.201.

`Cc1conc1CC1(c2cccc(N3Cc4c(cc(CN5CCC6(CC6)C5)cc4C(F)(F)F)C3=O)c2)COC1` [Compound 535, 6-{5-azaspiro[2.4]heptan-5-ylmethyl}-2-(3-{3-[(4-methyl-1,2-oxazol-3-yl)methyl]oxetan-3-yl}phenyl)-4-(trifluoromethyl)-3H-isoindol-1-one]: the IC50 on Cbl-b [1] is less than 100 nM; on Cbl-b [4] it was not above 100 nM. For the same compound, the fold induction at 0.3 µM with T-cell [2] is 1.31 to 1.5; in the test with T-cell [5] it was more than 7.5. For the same compound, the fold induction at 1 µM in the test with T-cell [2] was 1.31 to 1.5; with T-cell [3] it was more than 1; with T-cell [5] it was more than 7.5; in the test on T-cell [6], more than 0.201.

As to `Cn1cnnc1CC1(c2cccc(N3Cc4c(cc(CN5CC(F)C5(C)C)cc4C(F)(F)F)C3=O)c2)COC1` (stereo not shown) [Compound 536, 6-((3-fluoro-2,2-dimethylazetidin-1-yl)methyl)-2-(3-(3-((4-methyl-4H-1,2,4-triazol-3-yl)methyl)oxetan-3-yl)phenyl)-4-(trifluoromethyl)isoindolin-1-one], the IC50 at Cbl-b [1] was less than 100 nM; at Cbl-b [4], not above 100 nM. Besides, the fold induction at 0.3 µM in the test on T-cell [2] lay within 1.31 to 1.5; with T-cell [5], 2.51 to 5. For the same compound, the fold induction at 1 µM is 1.31 to 1.5 in the test on T-cell [2], more than 1 with T-cell [3], 5 to 7.5 in the test on T-cell [5] and 0.101 to 0.15 with T-cell [6].

For `CC(c1cc(C(=O)Nc2cccc(C3(Cc4nncn4C)COC3)c2)nc(C2CC2)n1)N1CC(F)C1` (stereo not shown) [Compound 538, 2-cyclopropyl-6-(1-(3-fluoroazetidin-1-yl)ethyl)-N-(3-(3-((4-methyl-4H-1,2,4-triazol-3-yl)methyl)oxetan-3-yl)phenyl)pyrimidine-4-carboxamide], the IC50 is less than 100 nM on Cbl-b [1] and not above 100 nM on Cbl-b [4]. Besides, the fold induction at 0.3 µM with T-cell [2] was in the range of 1.01 to 1.3; in the test on T-cell [5], 1.01 to 2.5. Further, the fold induction at 1 µM in the test on T-cell [2] was in the range of 1.31 to 1.5; with T-cell [3], 0.801 to 1; in the test on T-cell [5], 2.51 to 5; with T-cell [6], 0.101 to 0.15.

For `CC(O)c1cc2c(c(C(F)(F)F)c1)CN(c1cccc(C3(Cc4nncn4C)COC3)c1)C2=O` (stereo not drawn) [Compound 540, 6-(l-hydroxyethyl)-2-(3-(3-((4-methyl-4H-1,2,4-triazol-3-yl)methyl)oxetan-3-yl)phenyl)-4-(trifluoromethyl)isoindolin-1-one], the results for the IC50 at Cbl-b [1] and at Cbl-b [4] were less than 100 nM and not above 100 nM, respectively. In addition, the fold induction at 0.3 µM with T-cell [2] was 1.01 to 1.3; with T-cell [5], 1.01 to 2.5. The fold induction at 1 µM was 1.01 to 1.3 in the test on T-cell [2], more than 1 with T-cell [3], 2.51 to 5 in the test on T-cell [5] and 0.151 to 0.2 in the test with T-cell [6].

Turning to `C[C@H](c1cc2c(c(C(F)(F)F)c1)CN(c1cccc(C3(Cc4nncn4C)COC3)c1)C2=O)N1C[C@H]2C[C@H]2C1` [Compound 541b, 6-((1R)-1-(3-azabicyclo[3.1.0]hexan-3-yl)ethyl)-2-(3-(3-((4-methyl-4H-1,2,4-triazol-3-yl)methyl)oxetan-3-yl)phenyl)-4-(trifluoromethyl)isoindolin-1-one], the figures for the IC50 on Cbl-b [1] and at Cbl-b [4] were less than 100 nM and not above 100 nM, respectively. In addition, the figures for the fold induction at 0.3 µM in the test with T-cell [2] and in the test on T-cell [5] were 1.31 to 1.5 and more than 7.5, respectively. Also, the fold induction at 1 µM in the test on T-cell [2] was 1.31 to 1.5; in the test with T-cell [3] it was more than 1; with T-cell [5] it was more than 7.5; with T-cell [6], more than 0.201.
